Test results reported in ChEMBL document CHEMBL3593212, “Synthesis and evaluation of novel 1H-pyrrolo[2,3-b]pyridine-5-carboxamide derivatives as potent and orally efficacious immunomodulators targeting JAK3” (Bioorg Med Chem, 2015).
pIC50: −log10 of the molar value.

Tests used:
[1] = target: T1, Tyrosine-protein kinase JAK3 (Homo sapiens, UniProt P52333); assay: Inhibition of human JAK3 kinase domain using biotin-Lyn-substrate-2 as substrate incubated for 1 hr by ELISA method
T1 sequence (P52333 whole entry): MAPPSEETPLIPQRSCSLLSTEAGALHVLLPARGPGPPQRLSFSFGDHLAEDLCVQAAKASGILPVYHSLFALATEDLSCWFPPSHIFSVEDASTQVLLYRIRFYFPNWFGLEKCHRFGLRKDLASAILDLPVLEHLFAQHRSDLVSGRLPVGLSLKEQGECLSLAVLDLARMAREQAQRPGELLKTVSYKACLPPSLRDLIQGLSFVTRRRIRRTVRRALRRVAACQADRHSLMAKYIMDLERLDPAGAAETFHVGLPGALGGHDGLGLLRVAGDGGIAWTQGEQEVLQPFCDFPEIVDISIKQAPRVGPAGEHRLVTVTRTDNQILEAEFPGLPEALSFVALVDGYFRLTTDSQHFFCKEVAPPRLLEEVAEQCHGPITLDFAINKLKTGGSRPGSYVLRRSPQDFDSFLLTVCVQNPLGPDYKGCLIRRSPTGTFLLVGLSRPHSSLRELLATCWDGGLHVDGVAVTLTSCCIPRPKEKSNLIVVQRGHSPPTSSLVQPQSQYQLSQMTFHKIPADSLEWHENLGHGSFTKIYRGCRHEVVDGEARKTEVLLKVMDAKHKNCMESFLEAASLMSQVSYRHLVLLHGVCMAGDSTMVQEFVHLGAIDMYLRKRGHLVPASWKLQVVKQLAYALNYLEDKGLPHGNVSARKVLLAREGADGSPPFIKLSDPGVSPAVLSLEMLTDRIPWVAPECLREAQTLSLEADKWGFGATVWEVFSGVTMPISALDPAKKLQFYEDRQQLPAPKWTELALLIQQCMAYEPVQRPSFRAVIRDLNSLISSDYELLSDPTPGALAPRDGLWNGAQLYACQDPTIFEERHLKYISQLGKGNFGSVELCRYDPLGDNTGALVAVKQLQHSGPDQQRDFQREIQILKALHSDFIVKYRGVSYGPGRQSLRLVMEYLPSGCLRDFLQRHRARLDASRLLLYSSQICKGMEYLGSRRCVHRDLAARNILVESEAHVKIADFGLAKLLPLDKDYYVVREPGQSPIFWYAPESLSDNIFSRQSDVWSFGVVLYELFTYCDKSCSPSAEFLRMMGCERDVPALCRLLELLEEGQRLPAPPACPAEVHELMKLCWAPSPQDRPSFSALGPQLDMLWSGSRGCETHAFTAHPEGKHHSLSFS

[2] = target: Tyrosine-protein kinase JAK2 (Homo sapiens, UniProt O60674); assay: Inhibition of human JAK2 kinase domain using biotin-Lyn-substrate-2 as substrate incubated for 1 hr by ELISA method
Tyrosine-protein kinase JAK2, sequence (O60674 whole entry, the tested form may be a part): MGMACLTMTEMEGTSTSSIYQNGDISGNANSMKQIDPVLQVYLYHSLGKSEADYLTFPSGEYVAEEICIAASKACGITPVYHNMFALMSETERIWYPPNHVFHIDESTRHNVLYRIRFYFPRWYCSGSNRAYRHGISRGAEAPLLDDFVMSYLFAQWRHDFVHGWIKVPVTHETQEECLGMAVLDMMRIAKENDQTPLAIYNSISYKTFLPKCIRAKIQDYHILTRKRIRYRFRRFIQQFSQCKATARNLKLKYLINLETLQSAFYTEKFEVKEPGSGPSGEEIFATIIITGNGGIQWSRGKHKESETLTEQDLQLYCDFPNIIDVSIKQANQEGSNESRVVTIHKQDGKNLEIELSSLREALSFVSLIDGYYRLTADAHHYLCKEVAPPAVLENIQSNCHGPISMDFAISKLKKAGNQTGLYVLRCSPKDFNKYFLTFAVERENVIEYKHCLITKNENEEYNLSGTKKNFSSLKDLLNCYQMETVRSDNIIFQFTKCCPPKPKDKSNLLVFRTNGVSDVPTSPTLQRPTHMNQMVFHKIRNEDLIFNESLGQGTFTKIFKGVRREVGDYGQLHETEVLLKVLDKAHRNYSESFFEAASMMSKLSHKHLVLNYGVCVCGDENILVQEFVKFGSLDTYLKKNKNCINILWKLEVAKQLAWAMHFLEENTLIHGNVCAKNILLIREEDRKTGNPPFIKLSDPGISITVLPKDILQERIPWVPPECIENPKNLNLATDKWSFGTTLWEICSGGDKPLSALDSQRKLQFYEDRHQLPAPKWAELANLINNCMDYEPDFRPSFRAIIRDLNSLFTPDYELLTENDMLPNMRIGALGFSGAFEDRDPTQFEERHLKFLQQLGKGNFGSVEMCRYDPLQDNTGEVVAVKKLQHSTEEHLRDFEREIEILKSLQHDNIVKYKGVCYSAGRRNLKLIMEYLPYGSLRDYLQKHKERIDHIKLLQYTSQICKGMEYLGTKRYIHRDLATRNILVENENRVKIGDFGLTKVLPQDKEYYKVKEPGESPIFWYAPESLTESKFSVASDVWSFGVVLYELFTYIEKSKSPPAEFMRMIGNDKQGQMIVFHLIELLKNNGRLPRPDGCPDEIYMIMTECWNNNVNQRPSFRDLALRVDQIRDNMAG

[3] = Intrinsic clearance in rat liver microsomes at 0.2 uM in presence of NADPH generating system by LC/MS/MS method; format: ADME; settings: read-out: CLH
[4] = target: Tyrosine-protein kinase JAK1 (Homo sapiens, UniProt P23458); assay: Inhibition of human JAK1 kinase domain using biotin-Lyn-substrate-2 as substrate incubated for 1 hr by ELISA method
Tyrosine-protein kinase JAK1, sequence (P23458 whole entry, the tested form may be a part): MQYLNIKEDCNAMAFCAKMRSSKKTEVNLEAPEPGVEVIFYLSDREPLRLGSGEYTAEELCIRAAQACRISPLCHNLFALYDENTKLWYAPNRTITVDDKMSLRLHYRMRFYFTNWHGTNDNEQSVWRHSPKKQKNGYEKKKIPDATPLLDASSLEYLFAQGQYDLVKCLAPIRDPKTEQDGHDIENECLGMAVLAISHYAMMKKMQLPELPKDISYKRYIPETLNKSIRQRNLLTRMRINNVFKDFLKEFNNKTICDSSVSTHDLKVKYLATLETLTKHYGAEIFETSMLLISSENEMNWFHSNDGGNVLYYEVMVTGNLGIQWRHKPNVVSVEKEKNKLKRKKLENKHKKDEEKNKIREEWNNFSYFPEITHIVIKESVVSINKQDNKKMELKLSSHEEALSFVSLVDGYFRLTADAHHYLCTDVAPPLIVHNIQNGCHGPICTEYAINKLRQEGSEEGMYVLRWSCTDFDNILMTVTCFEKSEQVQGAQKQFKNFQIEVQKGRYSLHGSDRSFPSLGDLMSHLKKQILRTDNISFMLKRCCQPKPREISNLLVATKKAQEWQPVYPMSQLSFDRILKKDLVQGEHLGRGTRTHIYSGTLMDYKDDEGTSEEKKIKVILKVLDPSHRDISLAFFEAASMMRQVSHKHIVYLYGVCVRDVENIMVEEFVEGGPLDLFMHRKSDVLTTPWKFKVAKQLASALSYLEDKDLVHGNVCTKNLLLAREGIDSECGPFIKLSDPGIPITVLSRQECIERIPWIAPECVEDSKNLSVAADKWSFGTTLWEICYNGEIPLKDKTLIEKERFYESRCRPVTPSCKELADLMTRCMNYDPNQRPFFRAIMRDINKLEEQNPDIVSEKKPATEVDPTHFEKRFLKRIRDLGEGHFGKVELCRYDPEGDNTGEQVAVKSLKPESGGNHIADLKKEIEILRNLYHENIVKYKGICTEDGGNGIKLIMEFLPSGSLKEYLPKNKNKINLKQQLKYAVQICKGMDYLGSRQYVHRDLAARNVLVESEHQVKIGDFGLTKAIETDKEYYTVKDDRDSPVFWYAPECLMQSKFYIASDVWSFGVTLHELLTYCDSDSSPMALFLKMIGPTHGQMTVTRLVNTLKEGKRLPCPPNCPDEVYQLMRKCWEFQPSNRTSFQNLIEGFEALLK

[5] = Inhibition of JAK1/JAK3 in Lewis rat splenocytes assessed as reduction in IL2-stimulated T-cell proliferation incubated for 3 days by alamar blue dye based fluorescence assay; settings: 72 h
[6] = Effective permeability of the compound at pH 7.4 by PAMPA method; format: physicochemical; settings: read-out: Peff
[7] = target: Voltage-gated inwardly rectifying potassium channel KCNH2 (Homo sapiens, UniProt Q12809)
Voltage-gated inwardly rectifying potassium channel KCNH2, sequence (Q12809 whole entry): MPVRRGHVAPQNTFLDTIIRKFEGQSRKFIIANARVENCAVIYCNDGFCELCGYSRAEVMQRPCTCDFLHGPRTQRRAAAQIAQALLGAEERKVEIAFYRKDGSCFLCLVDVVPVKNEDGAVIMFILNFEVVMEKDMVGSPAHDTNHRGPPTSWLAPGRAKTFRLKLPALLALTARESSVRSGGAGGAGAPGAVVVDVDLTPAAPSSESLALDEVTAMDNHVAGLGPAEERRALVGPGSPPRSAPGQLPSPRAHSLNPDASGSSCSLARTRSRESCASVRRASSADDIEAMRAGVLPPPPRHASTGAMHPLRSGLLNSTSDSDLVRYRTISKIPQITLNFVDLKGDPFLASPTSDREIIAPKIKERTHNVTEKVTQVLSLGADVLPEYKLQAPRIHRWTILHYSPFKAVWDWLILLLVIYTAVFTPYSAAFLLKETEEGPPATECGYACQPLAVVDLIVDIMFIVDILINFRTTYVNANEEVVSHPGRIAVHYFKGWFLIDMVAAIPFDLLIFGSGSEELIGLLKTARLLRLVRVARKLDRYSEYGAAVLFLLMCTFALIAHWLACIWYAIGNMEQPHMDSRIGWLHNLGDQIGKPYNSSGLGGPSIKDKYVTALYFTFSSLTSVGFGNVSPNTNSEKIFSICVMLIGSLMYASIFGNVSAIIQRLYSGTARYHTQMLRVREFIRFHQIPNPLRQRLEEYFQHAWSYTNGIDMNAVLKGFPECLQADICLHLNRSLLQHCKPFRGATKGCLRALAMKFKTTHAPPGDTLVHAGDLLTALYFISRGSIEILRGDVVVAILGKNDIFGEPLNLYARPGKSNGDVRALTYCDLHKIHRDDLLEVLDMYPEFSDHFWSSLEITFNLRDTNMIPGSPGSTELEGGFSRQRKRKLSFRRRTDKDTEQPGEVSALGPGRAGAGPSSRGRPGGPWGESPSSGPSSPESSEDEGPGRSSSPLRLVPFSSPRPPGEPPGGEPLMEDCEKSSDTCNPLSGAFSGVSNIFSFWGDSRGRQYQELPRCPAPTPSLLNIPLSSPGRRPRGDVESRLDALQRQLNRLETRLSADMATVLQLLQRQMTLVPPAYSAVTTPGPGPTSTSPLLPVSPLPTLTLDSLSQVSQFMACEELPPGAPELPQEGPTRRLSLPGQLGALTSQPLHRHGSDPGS
Description: Inhibition of human ERG expressed in CHOK1 cells incubated for 10 mins by Rb efflux assay

Row | pIC50 [1] | pIC50 [2] | CLint scaled at 0.2 µM [3] [mL/min/kg] | pIC50 [4] | Papp [6] [×10⁻⁶ cm/s] | Structure (SMILES) | pIC50 [5] | pIC50 [7]
1 | 6.82 | 6.72 | – | – | – | CS(=O)(=O)N1CCC(Nc2c(C(N)=O)cnc3[nH]ccc23)CC1 | – | –
2 | 7.60 | 6.43 | – | – | – | NC(=O)c1cnc2[nH]ccc2c1NC1CCN(c2ccc(C(F)(F)F)cn2)CC1 | – | –
3 | – | 7.31 | 262 | 7.30 | – | N#Cc1ccc(N2CCC(Nc3c(C(N)=O)cnc4[nH]ccc34)CC2)cc1 | – | –
4 | 8.89 | 7.74 | 204 | 7.80 | 26 | N#Cc1ccc(N2CCC(Nc3c(C(N)=O)cnc4[nH]ccc34)CC2)nc1 | 7.57 | –
5 | 7.34 | 6.70 | – | 6.96 | – | N#CCC(=O)N1CCC(Nc2c(C(N)=O)cnc3[nH]ccc23)CC1 | – | –
6 | 8.92 | 7.92 | – | 7.66 | < 0.2 | N#Cc1ccc(N2CCC(Nc3c(C(N)=O)cnc4[nH]ccc34)CC2)nn1 | 6.85 | < 4.00
7 | – | 7.08 | – | – | – | NC(=O)c1cnc2[nH]ccc2c1NC1CCN(Cc2ccccc2)CC1 | – | –
8 | 8.44 | 7.39 | – | 7.46 | < 0.2 | N#Cc1cnc(N2CCC(Nc3c(C(N)=O)cnc4[nH]ccc34)CC2)cn1 | 7.11 | < 4.00
9 | 8.04 | 7.00 | – | 6.74 | – | NC(=O)c1cnc2[nH]ccc2c1NC1CCN(c2ccc(CO)cn2)CC1 | – | –
10 | 9.11 | 7.85 | – | 7.96 | – | C[C@H]1CN(c2ccc(C#N)cn2)CC[C@H]1Nc1c(C(N)=O)cnc2[nH]ccc12 (relative stereo) | – | –
11 | 8.28 | 7.39 | – | 7.24 | – | NC(=O)c1ccc(N2CCC(Nc3c(C(N)=O)cnc4[nH]ccc34)CC2)nc1 | – | –
12 | 6.62 | 6.37 | – | – | – | NC(=O)c1cnc2[nH]ccc2c1N[C@@H]1CCCN(Cc2ccccc2)C1 | – | –
13 | 6.47 | 6.19 | – | – | – | CC(=O)N1CCC(Nc2c(C(N)=O)cnc3[nH]ccc23)CC1 | – | –
14 | 6.89 | 6.19 | – | – | – | NC(=O)c1cnc2[nH]ccc2c1N[C@H]1CCCN(Cc2ccccc2)C1 | – | –
15 | 7.60 | 7.34 | – | – | – | N#Cc1cccc(CN2CCC(Nc3c(C(N)=O)cnc4[nH]ccc34)CC2)c1 | – | –
16 | 8.77 | 7.77 | – | 7.57 | 5 | N#Cc1ccc(N2CC[C@H](Nc3c(C(N)=O)cnc4[nH]ccc34)[C@H](F)C2)nc1 | 7.36 | < 4.00
17 | 7.05 | 6.51 | – | 6.52 | – | CN1CCC(Nc2c(C(N)=O)cnc3[nH]ccc23)CC1 | – | –
18 | 8.29 | 7.52 | > 1000 | 7.33 | – | C[C@@H]1CCCC[C@@H]1Nc1c(C(N)=O)cnc2[nH]ccc12 | 7.07 | –
